Test results as given in ChEMBL document CHEMBL2311510, “A new single-photon emission computed tomography (SPECT) imaging agent for serotonin transporters: [(125)I]Flip-IDAM, (2-((2-((dimethylamino)methyl)-4-iodophenyl)thio)phenyl)methanol” (Bioorg Med Chem Lett, 2013).

Assays:
Zone of skin [1] = experiment: Biodistribution in Sprague-Dawley rat skin assessed as compound level per organ at 11 uCi, iv measured 30 mins post compound dose; format: ADME, organism-based; conditions: in vivo, 0.5 h
Hypothalamus = experiment: Biodistribution in Sprague-Dawley rat hypothalamus at 11 uCi, iv measured 120 mins post compound dose; format: ADME, organism-based; conditions: in vivo, 2 h
Liver [2] = experiment: Biodistribution in Sprague-Dawley rat liver assessed as compound level per organ at 11 uCi, iv measured 30 mins post compound dose; format: ADME, organism-based; conditions: in vivo, 0.5 h
Lung [3] = experiment: Biodistribution in Sprague-Dawley rat lung assessed as compound level per organ at 11 uCi, iv measured 120 mins post compound dose; format: ADME, organism-based; conditions: in vivo, 2 h
Brain [4] = experiment: Biodistribution in Sprague-Dawley rat rest of brain at 11 uCi, iv measured 30 mins post compound dose; format: ADME, organism-based; conditions: in vivo, 0.5 h
Liver [5] = experiment: Biodistribution in Sprague-Dawley rat liver at 11 uCi, iv measured 2 mins post compound dose; format: ADME, organism-based; conditions: in vivo
Cortex = experiment: Biodistribution in Sprague-Dawley rat cortex at 11 uCi, iv measured 30 mins post compound dose; format: ADME, organism-based; conditions: in vivo, 0.5 h
Heart [6] = experiment: Biodistribution in Sprague-Dawley rat heart assessed as compound level per organ at 11 uCi, iv measured 2 mins post compound dose; format: ADME, organism-based; conditions: in vivo
Spleen [7] = experiment: Biodistribution in Sprague-Dawley rat spleen at 11 uCi, iv measured 30 mins post compound dose; format: ADME, organism-based; conditions: in vivo, 0.5 h
Liver [8] = experiment: Biodistribution in Sprague-Dawley rat liver assessed as compound level per organ at 11 uCi, iv measured 120 mins post compound dose; format: ADME, organism-based; conditions: in vivo, 2 h
Spleen [9] = experiment: Biodistribution in Sprague-Dawley rat spleen assessed as compound level per organ at 11 uCi, iv measured 2 mins post compound dose; format: ADME, organism-based; conditions: in vivo
Kidney [10] = experiment: Biodistribution in Sprague-Dawley rat kidney at 11 uCi, iv measured 60 mins post compound dose; format: ADME, organism-based; conditions: in vivo, 1 h
Hippocampus = experiment: Biodistribution in Sprague-Dawley rat hippocampus at 11 uCi, iv measured 60 mins post compound dose; format: ADME, organism-based; conditions: in vivo, 1 h
Nucleic Acid [11] = experiment: Ratio of drug level in cortex to cerebellum in Sprague-Dawley rat at 11 uCi, iv measured 30 mins post compound dose; format: ADME, organism-based; conditions: in vivo, 0.5 h
Heart [12] = experiment: Biodistribution in Sprague-Dawley rat heart at 11 uCi, iv measured 30 mins post compound dose; format: ADME, organism-based; conditions: in vivo, 0.5 h
Striatum = experiment: Biodistribution in Sprague-Dawley rat striatum at 11 uCi, iv measured 120 mins post compound dose; format: ADME, organism-based; conditions: in vivo, 2 h
Nucleic Acid [13] = experiment: Ratio of drug level in rest of brain region to cerebellum in Sprague-Dawley rat at 11 uCi, iv measured 60 mins post compound dose; format: ADME, organism-based; conditions: in vivo, 1 h
Cerebellum [14] = experiment: Biodistribution in Sprague-Dawley rat cerebellum at 11 uCi, iv measured 60 mins post compound dose; format: ADME, organism-based; conditions: in vivo, 1 h
Cerebellum [15] = experiment: Biodistribution in Sprague-Dawley rat cerebellum at 11 uCi, iv measured 120 mins post compound dose; format: ADME, organism-based; conditions: in vivo, 2 h
Blood = experiment: Biodistribution in Sprague-Dawley rat blood assessed as compound level per organ at 11 uCi, iv measured 2 mins post compound dose; format: ADME, organism-based; conditions: in vivo
Spleen [16] = experiment: Biodistribution in Sprague-Dawley rat spleen assessed as compound level per organ at 11 uCi, iv measured 60 mins post compound dose; format: ADME, organism-based; conditions: in vivo, 1 h
Lung [17] = experiment: Biodistribution in Sprague-Dawley rat lung assessed as compound level per organ at 11 uCi, iv measured 30 mins post compound dose; format: ADME, organism-based; conditions: in vivo, 0.5 h
Nucleic Acid [18] = experiment: Ratio of drug level in hippocampus to cerebellum in Sprague-Dawley rat at 11 uCi, iv measured 120 mins post compound dose; format: ADME, organism-based; conditions: in vivo, 2 h
Heart [19] = experiment: Biodistribution in Sprague-Dawley rat heart at 11 uCi, iv measured 2 mins post compound dose; format: ADME, organism-based; conditions: in vivo
Heart [20] = experiment: Biodistribution in Sprague-Dawley rat heart assessed as compound level per organ at 11 uCi, iv measured 30 mins post compound dose; format: ADME, organism-based; conditions: in vivo, 0.5 h
Spleen [21] = experiment: Biodistribution in Sprague-Dawley rat spleen assessed as compound level per organ at 11 uCi, iv measured 120 mins post compound dose; format: ADME, organism-based; conditions: in vivo, 2 h
Heart [22] = experiment: Biodistribution in Sprague-Dawley rat heart at 11 uCi, iv measured 120 mins post compound dose; format: ADME, organism-based; conditions: in vivo, 2 h
Bone [23] = experiment: Biodistribution in Sprague-Dawley rat bone at 11 uCi, iv measured 30 mins post compound dose; format: ADME, organism-based, Bone element; conditions: in vivo, 0.5 h
Brain [24] = experiment: Biodistribution in Sprague-Dawley rat rest of brain at 11 uCi, iv measured 2 mins post compound dose; format: ADME, organism-based; conditions: in vivo
Pancreas [25] = experiment: Biodistribution in Sprague-Dawley rat pancreas assessed as compound level per organ at 11 uCi, iv measured 30 mins post compound dose; format: ADME, organism-based; conditions: in vivo, 0.5 h
Kidney [26] = experiment: Biodistribution in Sprague-Dawley rat kidney at 11 uCi, iv measured 2 mins post compound dose; format: ADME, organism-based; conditions: in vivo
Brain [27] = experiment: Biodistribution in Sprague-Dawley rat brain assessed as compound level per organ at 11 uCi, iv measured 30 mins post compound dose; format: ADME, organism-based; conditions: in vivo, 0.5 h
Muscle tissue = experiment: Biodistribution in Sprague-Dawley rat muscle assessed as compound level per organ at 11 uCi, iv measured 60 mins post compound dose; format: ADME, organism-based; conditions: in vivo, 1 h
Nucleic Acid [28] = experiment: Ratio of drug level in cortex to cerebellum in Sprague-Dawley rat at 11 uCi, iv measured 2 mins post compound dose; format: ADME, organism-based; conditions: in vivo
Lung [29] = experiment: Biodistribution in Sprague-Dawley rat lung assessed as compound level per organ at 11 uCi, iv measured 60 mins post compound dose; format: ADME, organism-based; conditions: in vivo, 1 h
Heart [30] = experiment: Biodistribution in Sprague-Dawley rat heart at 11 uCi, iv measured 60 mins post compound dose; format: ADME, organism-based; conditions: in vivo, 1 h
Nucleic Acid [31] = experiment: Ratio of drug level in hippocampus to cerebellum in Sprague-Dawley rat at 11 uCi, iv measured 60 mins post compound dose; format: ADME, organism-based; conditions: in vivo, 1 h
Lung [32] = experiment: Biodistribution in Sprague-Dawley rat lung at 11 uCi, iv measured 30 mins post compound dose; format: ADME, organism-based; conditions: in vivo, 0.5 h
Bone [33] = experiment: Biodistribution in Sprague-Dawley rat bone at 11 uCi, iv measured 120 mins post compound dose; format: ADME, organism-based, Bone element; conditions: in vivo, 2 h
Zone of skin [34] = experiment: Biodistribution in Sprague-Dawley rat skin at 11 uCi, iv measured 2 mins post compound dose; format: ADME, organism-based; conditions: in vivo
Nucleic Acid [35] = experiment: Ratio of drug level in striatum to cerebellum in Sprague-Dawley rat at 11 uCi, iv measured 2 mins post compound dose; format: ADME, organism-based; conditions: in vivo
Spleen [36] = experiment: Biodistribution in Sprague-Dawley rat spleen at 11 uCi, iv measured 60 mins post compound dose; format: ADME, organism-based; conditions: in vivo, 1 h
Nucleic Acid [37] = experiment: Ratio of drug level in cortex to cerebellum in Sprague-Dawley rat at 11 uCi, iv measured 120 mins post compound dose; format: ADME, organism-based; conditions: in vivo, 2 h
Heart [38] = experiment: Biodistribution in Sprague-Dawley rat heart assessed as compound level per organ at 11 uCi, iv measured 120 mins post compound dose; format: ADME, organism-based; conditions: in vivo, 2 h
Nucleic Acid [39] = experiment: Ratio of drug level in striatum to cerebellum in Sprague-Dawley rat at 11 uCi, iv measured 30 mins post compound dose; format: ADME, organism-based; conditions: in vivo, 0.5 h
Pancreas [40] = experiment: Biodistribution in Sprague-Dawley rat pancreas assessed as compound level per organ at 11 uCi, iv measured 120 mins post compound dose; format: ADME, organism-based; conditions: in vivo, 2 h
Kidney [41] = experiment: Biodistribution in Sprague-Dawley rat kidney at 11 uCi, iv measured 30 mins post compound dose; format: ADME, organism-based; conditions: in vivo, 0.5 h
Zone of skin [42] = experiment: Biodistribution in Sprague-Dawley rat skin at 11 uCi, iv measured 30 mins post compound dose; format: ADME, organism-based; conditions: in vivo, 0.5 h
Brain [43] = experiment: Biodistribution in Sprague-Dawley rat brain assessed as compound level per organ at 11 uCi, iv measured 60 mins post compound dose; format: ADME, organism-based; conditions: in vivo, 1 h
Brain [44] = experiment: Biodistribution in Sprague-Dawley rat rest of brain at 11 uCi, iv measured 120 mins post compound dose; format: ADME, organism-based; conditions: in vivo, 2 h
Liver [45] = experiment: Biodistribution in Sprague-Dawley rat liver assessed as compound level per organ at 11 uCi, iv measured 2 mins post compound dose; format: ADME, organism-based; conditions: in vivo

CN(C)Cc1cc([125I])ccc1Sc1ccccc1CO
Drug uptake (Zone of skin [1]): 9.38 %ID | Drug uptake (Hypothalamus): 0.1 % ID/g | Drug uptake (Liver [2]): 9.09 %ID | Drug uptake (Lung [3]): 0.41 %ID | Drug uptake (Brain [4]): 0.55 % ID/g | Drug uptake (Liver [5]): 1.23 % ID/g | Drug uptake (Cortex): 0.21 % ID/g | Drug uptake (Heart [6]): 1.17 %ID | Drug uptake (Spleen [7]): 0.55 % ID/g | Drug uptake (Liver [8]): 2.69 %ID | Drug uptake (Spleen [9]): 1.04 %ID | Drug uptake (Kidney [10]): 0.72 % ID/g | Drug uptake (Hippocampus): 0.21 % ID/g | Ratio (Nucleic Acid [11]): 0.82 | Drug uptake (Heart [12]): 0.38 % ID/g | Drug uptake (Striatum): 0.1 % ID/g | Ratio (Nucleic Acid [13]): 1.1 | Drug uptake (Cerebellum [14]): 0.12 % ID/g | Drug uptake (Cerebellum [15]): 0.05 % ID/g | Drug uptake (Blood): 6.43 %ID | Drug uptake (Spleen [16]): 0.14 %ID | Drug uptake (Lung [17]): 1.5 %ID | Ratio (Nucleic Acid [18]): 1.5 | Drug uptake (Heart [19]): 1.46 % ID/g | Drug uptake (Heart [20]): 0.28 %ID | Drug uptake (Spleen [21]): 0.07 %ID | Drug uptake (Heart [22]): 0.14 % ID/g | Drug uptake (Bone [23]): 0.4 % ID/g | Drug uptake (Brain [24]): 1.14 % ID/g | Drug uptake (Pancreas [25]): 0.26 %ID | Drug uptake (Kidney [26]): 2.6 % ID/g | Drug uptake (Brain [27]): 1.13 %ID | Drug uptake (Muscle tissue): 11 %ID | Ratio (Nucleic Acid [28]): 0.92 | Drug uptake (Lung [29]): 0.73 %ID | Drug uptake (Heart [30]): 0.17 % ID/g | Ratio (Nucleic Acid [31]): 1.83 | Drug uptake (Lung [32]): 0.77 % ID/g | Drug uptake (Bone [33]): 0.16 % ID/g | Drug uptake (Zone of skin [34]): 0.28 % ID/g | Ratio (Nucleic Acid [35]): 0.84 | Drug uptake (Spleen [36]): 0.22 % ID/g | Ratio (Nucleic Acid [37]): 1.24 | Drug uptake (Heart [38]): 0.12 %ID | Ratio (Nucleic Acid [39]): 3.13 | Drug uptake (Pancreas [40]): 0.06 %ID | Drug uptake (Kidney [41]): 1.45 % ID/g | Drug uptake (Zone of skin [42]): 0.31 % ID/g | Drug uptake (Brain [43]): 0.31 %ID | Drug uptake (Brain [44]): 0.06 % ID/g | Drug uptake (Liver [45]): 9.42 %ID
